Results taken from PubChem BioAssay (NCI).
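Cells were grown in 96-well plates and exposed to each compound for 48 hours at five concentrations; endpoints were interpolated linearly between bracketing concentrations, or set to the highest concentration if not reached. TGI: total growth inhibition.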

What was measured:
Test in all cases: inhibition of tumour cell growth, NCI panel, 48 h
OVCAR-3 ovarian = test system: OVCAR-3 ovarian
HS 578T breast = test system: HS 578T breast
NCI-H23 lung = test system: NCI-H23 lung
EKVX NSCLC = test system: EKVX NSCLC
MOLT-4 leukemia = test system: MOLT-4 leukemia
UACC-62 melanoma = test system: UACC-62 melanoma
SW-620 colon = test system: SW-620 colon
HT29 colon = test system: HT29 colon
RPMI-8226 leukemia = test system: RPMI-8226 leukemia
NCI-H522 lung = test system: NCI-H522 lung
OVCAR-5 ovarian = test system: OVCAR-5 ovarian
OVCAR-8 ovarian = test system: OVCAR-8 ovarian
IGROV1 ovarian = test system: IGROV1 ovarian
UO-31 renal = test system: UO-31 renal
HCT-116 colon = test system: HCT-116 colon
MALME-3M melanoma = test system: MALME-3M melanoma
LOX IMVI melanoma = test system: LOX IMVI melanoma
KM12 colon = test system: KM12 colon
U251 CNS = test system: U251 CNS
DU-145 prostate = test system: DU-145 prostate
PC-3 prostate = test system: PC-3 prostate
TK-10 renal = test system: TK-10 renal
CAKI-1 renal = test system: CAKI-1 renal
M14 melanoma = test system: M14 melanoma
SN12C renal = test system: SN12C renal
A498 renal = test system: A498 renal
SK-MEL-28 melanoma = test system: SK-MEL-28 melanoma
SF-268 CNS = test system: SF-268 CNS
HCC-2998 colon = test system: HCC-2998 colon
SF-539 CNS = test system: SF-539 CNS
SK-MEL-5 melanoma = test system: SK-MEL-5 melanoma
CCRF-CEM leukemia = test system: CCRF-CEM leukemia
ACHN renal = test system: ACHN renal
SNB-19 CNS = test system: SNB-19 CNS
786-0 renal = test system: 786-0 renal
SK-MEL-2 melanoma = test system: SK-MEL-2 melanoma
SK-OV-3 ovarian = test system: SK-OV-3 ovarian
A549 NSCLC = test system: A549 NSCLC
HL-60(TB) leukemia = test system: HL-60(TB) leukemia
COLO 205 colon = test system: COLO 205 colon
MDA-N = test system: MDA-N
UACC-257 melanoma = test system: UACC-257 melanoma
MCF7 breast = test system: MCF7 breast
MDA-MB-231 breast = test system: MDA-MB-231 breast
SNB-75 CNS = test system: SNB-75 CNS
NCI-H460 lung = test system: NCI-H460 lung
HCT-15 colon = test system: HCT-15 colon
T-47D breast = test system: T-47D breast
RXF 393 renal = test system: RXF 393 renal
OVCAR-4 ovarian = test system: OVCAR-4 ovarian
HOP-62 NSCLC = test system: HOP-62 NSCLC
K-562 leukemia = test system: K-562 leukemia
SF-295 CNS = test system: SF-295 CNS
HOP-92 NSCLC = test system: HOP-92 NSCLC
NCI/ADR-RES ovarian = test system: NCI/ADR-RES ovarian
BT-549 breast = test system: BT-549 breast
MDA-MB-435 = test system: MDA-MB-435
NCI-H226 lung = test system: NCI-H226 lung

## CCOC(=O)C1=C(C)NC(C)=C(C(=O)OCC)C1c1ccc(Cl)cc1
OVCAR-3 ovarian
  TGI: 30.5 µM
HS 578T breast
  TGI: 42.2 µM
NCI-H23 lung
  TGI: 32.1 µM
EKVX NSCLC
  TGI: 31.3 µM
MOLT-4 leukemia
  TGI: 24.8 µM
UACC-62 melanoma
  TGI: 26.7 µM
SW-620 colon
  TGI: 36.2 µM
HT29 colon
  TGI: 24.8 µM
RPMI-8226 leukemia
  TGI: 52.8 µM
NCI-H522 lung
  TGI: 32.2 µM
OVCAR-5 ovarian
  TGI: 27 µM
OVCAR-8 ovarian
  TGI: 41.4 µM
IGROV1 ovarian
  TGI: 30.9 µM
UO-31 renal
  TGI: 36.4 µM
HCT-116 colon
  TGI: 22 µM
MALME-3M melanoma
  TGI: 34.6 µM
LOX IMVI melanoma
  TGI: 34.4 µM
KM12 colon
  TGI: 40.4 µM
U251 CNS
  TGI: 34.6 µM
DU-145 prostate
  TGI: 31.9 µM
PC-3 prostate
  TGI: 33.9 µM
TK-10 renal
  TGI: 29.2 µM
CAKI-1 renal
  TGI: 30.7 µM
M14 melanoma
  TGI: 31 µM
SN12C renal
  TGI: 34.5 µM
A498 renal
  TGI: 31.2 µM
SK-MEL-28 melanoma
  TGI: 37 µM
SF-268 CNS
  TGI: 34.6 µM
HCC-2998 colon
  TGI: 30.4 µM
SF-539 CNS
  TGI: 37.3 µM
SK-MEL-5 melanoma
  TGI: 28.1 µM
CCRF-CEM leukemia
  TGI: 28.3 µM
ACHN renal
  TGI: 30.8 µM
SNB-19 CNS
  TGI: 31.3 µM
786-0 renal
  TGI: 26.5 µM
SK-MEL-2 melanoma
  TGI: 34.5 µM
SK-OV-3 ovarian
  TGI: 31.7 µM
A549 NSCLC
  TGI: 34.3 µM
HL-60(TB) leukemia
  TGI: 8.15 µM
COLO 205 colon
  TGI: 32.4 µM
MDA-N
  TGI: 26.9 µM
UACC-257 melanoma
  TGI: 27.4 µM
MCF7 breast
  TGI: 38.7 µM
MDA-MB-231 breast
  TGI: 33.6 µM
SNB-75 CNS
  TGI: 33.5 µM
NCI-H460 lung
  TGI: 19.9 µM
HCT-15 colon
  TGI: 41.6 µM
T-47D breast
  TGI: 35.2 µM
RXF 393 renal
  TGI: 28.3 µM
OVCAR-4 ovarian
  TGI: 26.9 µM
HOP-62 NSCLC
  TGI: 30.8 µM
K-562 leukemia
  TGI: 44.6 µM
SF-295 CNS
  TGI: 26.3 µM
HOP-92 NSCLC
  TGI: 24 µM
NCI/ADR-RES ovarian
  TGI: 48.1 µM
BT-549 breast
  TGI: 32.7 µM
MDA-MB-435
  TGI: 28.9 µM

## Oc1ccc(C=NCC2CCCN3CCCCC23)cc1 (configuration not stated)
OVCAR-3 ovarian
  TGI: > 69.3 µM
HS 578T breast
  TGI: 85.5 µM
NCI-H23 lung
  TGI: > 62 µM
EKVX NSCLC
  TGI: > 75.4 µM
MOLT-4 leukemia
  TGI: > 100 µM
UACC-62 melanoma
  TGI: > 69.5 µM
HT29 colon
  TGI: 30.7 µM
RPMI-8226 leukemia
  TGI: 86 µM
NCI-H522 lung
  TGI: 47.3 µM
OVCAR-5 ovarian
  TGI: > 59.5 µM
OVCAR-8 ovarian
  TGI: > 100 µM
IGROV1 ovarian
  TGI: > 67.8 µM
UO-31 renal
  TGI: > 56.7 µM
HCT-116 colon
  TGI: 49.5 µM
MALME-3M melanoma
  TGI: 74.1 µM
LOX IMVI melanoma
  TGI: > 100 µM
KM12 colon
  TGI: 35.3 µM
U251 CNS
  TGI: 34.8 µM
DU-145 prostate
  TGI: 31.3 µM
PC-3 prostate
  TGI: > 100 µM
TK-10 renal
  TGI: 55.5 µM
CAKI-1 renal
  TGI: 39.5 µM
M14 melanoma
  TGI: > 57.6 µM
SN12C renal
  TGI: 41.9 µM
A498 renal
  TGI: 83.9 µM
SK-MEL-28 melanoma
  TGI: 38.6 µM
SF-268 CNS
  TGI: > 68.5 µM
HCC-2998 colon
  TGI: 40.4 µM
SF-539 CNS
  TGI: > 100 µM
SK-MEL-5 melanoma
  TGI: 51.4 µM
ACHN renal
  TGI: 34.9 µM
SNB-19 CNS
  TGI: 63.3 µM
786-0 renal
  TGI: 36.7 µM
SK-MEL-2 melanoma
  TGI: 49.4 µM
NCI-H226 lung
  TGI: 58.4 µM
SK-OV-3 ovarian
  TGI: 97.4 µM
A549 NSCLC
  TGI: > 62.8 µM
COLO 205 colon
  TGI: > 66.7 µM
MDA-N
  TGI: 39.4 µM
UACC-257 melanoma
  TGI: 62.3 µM
MCF7 breast
  TGI: > 100 µM
MDA-MB-231 breast
  TGI: 74.8 µM
SNB-75 CNS
  TGI: > 96.5 µM
NCI-H460 lung
  TGI: 73.4 µM
HCT-15 colon
  TGI: 63 µM
T-47D breast
  TGI: 71.3 µM
RXF 393 renal
  TGI: 43.9 µM
OVCAR-4 ovarian
  TGI: 42.3 µM
HOP-62 NSCLC
  TGI: > 75.1 µM
K-562 leukemia
  TGI: > 100 µM
SF-295 CNS
  TGI: > 76.9 µM
HOP-92 NSCLC
  TGI: 67.3 µM
NCI/ADR-RES ovarian
  TGI: > 100 µM
BT-549 breast
  TGI: 61.5 µM
MDA-MB-435
  TGI: 27 µM
